Patent US7423030B2, “1-amino-phthalazine derivatives, the preparation and the therapeutic use thereof” (Sanofi-Aventis, priority 2004, dated 2008)
Where a name gives a salt, the structure may show the parent alone.

With `COc1ccc(-c2nnc(NC3CCN(Cc4ccc5[nH]ccc5c4)CC3)c3cc(OC)ccc23)cc1` (as salt: salt) (hydrate or solvate) [Compound 87, N-[1-(1H-indol-5-ylmethyl)piperidin-4-yl]-7-methoxy-4-(4-methoxyphenyl)phthalazin-1-amine] the melting point was 281 °C. Molecule `COCc1ccc(-c2nnc(NC3CCN(Cc4ccc5ccccc5c4)CC3)c3cc(OC)ccc23)cc1` (as salt: salt) (hydrate or solvate) [Compound 88, 7-Methoxy-4-(4-methoxymethylphenyl)-N-[1-(naphthalen-2-ylmethyl)piperidin-4-yl]phthalazin-1-amine] has a melting point of 155 °C. `COc1ccc(-c2nnc(NC3CCN(Cc4ccc(OC)c(C)c4)CC3)c3cc(OC)ccc23)cc1` (as salt: salt) (hydrate or solvate) [Compound 89, 7-methoxy-N-[1-(4-methoxy-3-methylbenzyl)piperidin-4-yl]-4-(4-methoxyphenyl)phthalazin-1-amine] showed a melting point of 270 °C. `COc1ccc(-c2nnc(NC3CCN(Cc4ccc5ncccc5c4)CC3)c3cc(OC)ccc23)cc1` (as salt: salt) (hydrate or solvate) [Compound 99, 7-methoxy-4-(4-methoxyphenyl)-N-[1-(quinolin-6-ylmethyl)piperidin-4-yl]phthalazin-1-amine] showed a melting point of 249 °C. For `COc1ccc(-c2nnc(NC3CCN(Cc4ccc5c(ccn5C)c4)CC3)c3cc(OC)ccc23)cc1` (as salt: salt) (hydrate or solvate) [Compound 100, 7-methoxy-4-(4-methoxyphenyl)-N-{1-[(1-methyl-1H-indol-5-yl)methyl]piperidin-4-yl}phthalazin-1-amine], the melting point was 161 °C. Work on `COc1ccc(-c2nnc(NC3CCN(Cc4ccc5cc[nH]c5c4)CC3)c3cc(OC)ccc23)cc1` (as salt: salt) (hydrate or solvate) [Compound 129, N-[1-(1H-indol-6-ylmethyl)piperidin-4-yl]-7-methoxy-4-(4-methoxyphenyl)phthalazin-1-amine] yielded a melting point of 278 °C. Molecule `COc1ccc(OC)c(-c2nnc(NC3CCN(Cc4ccc5ncsc5c4)CC3)c3cc(OC)ccc23)c1` (as salt: salt) (hydrate or solvate) [Compound 135, N-[1-(1,3-benzothiazol-6-ylmethyl)piperidin-4-yl]-4-(2,5-dimethoxyphenyl)-7-methoxyphthalazin-1-amine] has a melting point of 193 °C. `COc1ccc(-c2nnc(NC3CCN(Cc4ccc5ccccc5c4)CC3)c3ccc(C)cc23)cc1` (as salt: salt) (hydrate or solvate) [Compound 142, 4-(4-methoxyphenyl)-6-methyl-N-[1-(naphthalen-2-ylmethyl)piperidin-4-yl]phthalazin-1-amine] showed a melting point of 134 °C. For `COc1ccc(-c2nnc(NC3CCN(Cc4ccc5ccccc5c4)CC3)c3cc(OC)ccc23)c(OC)c1.Cl.Cl` (hydrate or solvate), the melting point was 228 °C. For `COc1cc(OC)cc(-c2nnc(NC3CCN(Cc4ccc5ccccc5c4)CC3)c3cc(OC)ccc23)c1.Cl.Cl` (hydrate or solvate), the melting point was 240 °C. With `COc1ccc2c(-c3cccnc3)nnc(NC3CCN(Cc4ccc5ccccc5c4)CC3)c2c1.Cl.Cl.Cl` (hydrate or solvate) the melting point was 225 °C. Work on `COc1ccc(-c2nnc(NC3CCN(Cc4ccc(Cl)cc4)CC3)c3cc(OC)ccc23)cc1.Cl.Cl` (hydrate or solvate) yielded a melting point of 277 °C. `COc1ccc2c(-c3ccc(-c4ccccc4)cc3)nnc(NC3CCN(Cc4ccc5ccccc5c4)CC3)c2c1.Cl.Cl` (hydrate or solvate) showed a melting point of 292 °C. In the case of `COc1ccc(-c2nnc(NC3CCN(Cc4ccc(CO)cc4)CC3)c3cc(OC)ccc23)cc1.Cl.Cl` (hydrate or solvate), the melting point is reported as 294 °C. `COc1ccc(-c2nnc(NC3CCN(Cc4ccc(CN)cc4)CC3)c3cc(OC)ccc23)cc1.Cl.Cl.Cl` (hydrate or solvate) gave a melting point of 284 °C. Work on `COc1ccc(-c2nnc(NC3CCN(Cc4ccc(NC(C)=O)cc4)CC3)c3cc(OC)ccc23)cc1.Cl.Cl` (hydrate or solvate) yielded a melting point of 255 °C. `COc1ccc2c(-c3ccc(C)c(C)c3)nnc(NC3CCN(Cc4ccc5ccccc5c4)CC3)c2c1.Cl.Cl` (hydrate or solvate) showed a melting point of 210 °C. `COc1ccc(OC)c(-c2nnc(NC3CCN(Cc4ccc5occc5c4)CC3)c3cc(OC)ccc23)c1.Cl.Cl` (hydrate or solvate) gave a melting point of 250 °C. For `COc1ccc(OC)c(-c2nnc(NC3CCN(Cc4ccc5c(c4)OCO5)CC3)c3cc(OC)ccc23)c1.Cl.Cl` (hydrate or solvate), the melting point was 272 °C. In the case of `COc1ccc(-c2nnc(NC3CCN(Cc4ccc5oc(=O)ccc5c4)CC3)c3cc(OC)ccc23)cc1.Cl.Cl` (hydrate or solvate), the melting point is reported as 293 °C. `CCc1ccc(CN2CCC(Nc3nnc(-c4ccc(OC)cc4)c4ccc(OC)cc34)CC2)cc1.Cl.Cl` (hydrate or solvate) gave a melting point of 245 °C. Work on `COc1ccc2c(COc3ccccc3)nnc(NC3CCN(Cc4ccc5ccccc5c4)CC3)c2c1.Cl.Cl` (hydrate or solvate) yielded a melting point of 239 °C. Work on `Cl.Cl.c1ccc(-c2ccc3c(-c4ccccc4)nnc(NC4CCN(Cc5ccc6ccccc6c5)CC4)c3c2)cc1` (hydrate or solvate) yielded a melting point of 224 °C. For `COc1ccc(-c2nnc(NC3CCN(Cc4ccc(C(C)O)cc4)CC3)c3cc(OC)ccc23)cc1.Cl.Cl` (stereo not drawn) (hydrate or solvate), the melting point was 208 °C. With `COc1ccc(-c2nnc(NC3CCN(Cc4ccc(CN5CCCC5)cc4)CC3)c3cc(OC)ccc23)cc1.Cl.Cl.Cl` (hydrate or solvate) the melting point was 222 °C. Molecule `COc1ccc(-c2nnc(NC3CCN(Cc4ccc5ccccc5c4)CC3)c3cc(Cl)ccc23)cc1.Cl.Cl` (hydrate or solvate) has a melting point of 230 °C. For `COc1ccc2c(-c3ccc(Br)cc3)nnc(NC3CCN(Cc4ccc5ccccc5c4)CC3)c2c1.Cl.Cl` (hydrate or solvate), the melting point was 246 °C. `COCc1nnc(NC2CCN(Cc3ccc4c(c3)OCO4)CC2)c2cc(OC)ccc12.Cl.Cl` (hydrate or solvate) gave a melting point of 284 °C. Work on `COc1ccc(-c2nnc(NC3CCN(Cc4ccc(CN(C)C)cc4)CC3)c3cc(OC)ccc23)cc1.Cl.Cl.Cl` (hydrate or solvate) yielded a melting point of 218 °C. Work on `COc1ccc(-c2nnc(NC3CCN(Cc4ccc5ccccc5c4)CC3)c3cc(OC)cc(OC)c23)cc1.Cl.Cl` (hydrate or solvate) yielded a melting point of 212 °C. `COc1cc(-c2ccccc2)c2cnnc(NC3CCN(Cc4ccc5ccccc5c4)CC3)c2c1.Cl.Cl` (hydrate or solvate) gave a melting point of 199 °C. `COc1ccc(-c2nnc(NC3CCN(Cc4ccc5c(c4)OCO5)CC3)c3cc(OC)ccc23)cc1.Cl.Cl` (hydrate or solvate) showed a melting point of 235 °C. For `COCc1nnc(NC2CCN(Cc3ccc4ccccc4c3)CC2)c2cc(OC)ccc12.Cl` (hydrate or solvate), the melting point was 176 °C. `COc1ccc(-c2nnc(NC3CCN(C/C=C/c4ccccc4)CC3)c3cc(OC)ccc23)cc1.Cl.Cl` (hydrate or solvate) gave a melting point of 210 °C. Molecule `COc1ccc(-c2nnc(N[C@@H]3CCN(Cc4ccc5ccccc5c4)C3)c3cc(OC)ccc23)cc1.Cl.Cl` (hydrate or solvate) has a melting point of 254 °C. Molecule `COc1ccc(OC)c(-c2nnc(NC3CCN(Cc4ccc5ccccc5c4)CC3)c3cc(OC)ccc23)c1.Cl.Cl` (hydrate or solvate) has a melting point of 240 °C.
